PubChem BioAssay AID256 (DTP/NCI, 2004)
Where “and” joins values, the source holds several entries; their conditions need not be identical. Identical values can stand only once. Toxic doses and inconclusive results are not listed.

Tested on: CD2F1 mice, L1210 leukemia ip, survival T/C
Test: NCI In Vivo Anticancer Drug Screen. Data for tumor model L1210 Leukemia (intraperitoneal) in CD2F1 (CDF1) mice
Conditions: higher = longer survival
How it was run: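 Mice carrying a transplanted tumor received test compound or vehicle alone. The value is the measurement in the treated group divided by that in the vehicle-treated control group.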

[1] = endpoint: mean survival time, dose: 100.0 mg/kg/injection, schedule: Q04DX003 (ip), vehicle: saline with Tween-80
[2] = endpoint: mean survival time, dose: 200.0 mg/kg/injection, schedule: Q04DX003 (ip), vehicle: saline with Tween-80
[3] = endpoint: mean survival time, dose: 400.0 mg/kg/injection, schedule: Q04DX003 (ip), vehicle: saline with Tween-80
[4] = endpoint: mean survival time, dose: 50.0 mg/kg/injection, schedule: Q01DX009 (ip), vehicle: saline with Tween-80
[5] = endpoint: mean survival time, dose: 100.0 mg/kg/injection, schedule: Q01DX009 (ip), vehicle: saline with Tween-80
[6] = endpoint: mean survival time, dose: 200.0 mg/kg/injection, schedule: Q01DX009 (ip), vehicle: saline with Tween-80
[7] = endpoint: mean survival time, dose: 400.0 mg/kg/injection, schedule: Q01DX009 (ip), vehicle: saline with Tween-80

`O=c1ncccn1[C@@H]1O[C@H](CO)[C@H](O)C1O` (some centres not stated) was tested, and the T/C (endpoint: median survival time, dose: 25.0 mg/kg/injection, schedule: Q01DX009 (ip), vehicle: saline) was 114 % of control and 109 % of control, the T/C (endpoint: median survival time, dose: 75.0 mg/kg/injection, schedule: Q04DX003 (ip), vehicle: saline) was 102 % of control and the T/C (endpoint: median survival time, dose: 100.0 mg/kg/injection, schedule: Q01DX009 (oral), vehicle: saline) was 102 % of control. For the same compound, the T/C (endpoint: median survival time, dose: 125.0 mg/kg/injection, schedule: Q01DX001 (oral), vehicle: saline) was 101 % of control, the T/C (endpoint: median survival time, dose: 150.0 mg/kg/injection, schedule: Q04DX003 (ip), vehicle: saline) was 106 % of control and the T/C (endpoint: median survival time, dose: 200.0 mg/kg/injection, schedule: Q01DX009 (oral), vehicle: saline) was 110 % of control. The T/C (endpoint: median survival time, dose: 250.0 mg/kg/injection, schedule: Q01DX001 (oral), vehicle: saline) was 102 % of control, the T/C (endpoint: median survival time, dose: 300.0 mg/kg/injection, schedule: Q04DX003 (ip), vehicle: saline) was 111 % of control and the T/C (endpoint: median survival time, dose: 500.0 mg/kg/injection, schedule: Q01DX001 (oral), vehicle: saline) was 105 % of control. The T/C (endpoint: median survival time, dose: 600.0 mg/kg/injection, schedule: Q04DX003 (ip), vehicle: saline) was 114 % of control, the T/C (endpoint: median survival time, dose: 800.0 mg/kg/injection, schedule: Q01DX009 (oral), vehicle: saline) was 177 % of control and the T/C (endpoint: median survival time, dose: 1000.0 mg/kg/injection, schedule: Q01DX001 (oral), vehicle: saline) was 107 % of control. For the same compound, the T/C (endpoint: median survival time, dose: 1200.0 mg/kg/injection, schedule: Q04DX003 (ip), vehicle: saline) was 113 % of control, the T/C (endpoint: median survival time, dose: 1600.0 mg/kg/injection, schedule: Q01DX009 (oral), vehicle: saline) was 212 % of control and the T/C (endpoint: median survival time, dose: 2000.0 mg/kg/injection, schedule: Q01DX001 (oral), vehicle: saline) was 115 % of control.

With `CCOC(=O)CCC(NC(=O)c1cccc(N(C)C=O)c1)C(=O)OCC` (configuration not stated) the T/C (endpoint: mean survival time, dose: 100.0 mg/kg/injection, schedule: Q01DX001 (ip), vehicle: saline with Tween-80) was 110 % of control, the T/C [1] was 100 % of control and the T/C (endpoint: mean survival time, dose: 200.0 mg/kg/injection, schedule: Q01DX001 (ip), vehicle: saline with Tween-80) was 110 % of control. The T/C [2] was 100 % of control, the T/C (endpoint: mean survival time, dose: 400.0 mg/kg/injection, schedule: Q01DX001 (ip), vehicle: saline with Tween-80) was 113 % of control and the T/C [3] was 98 % of control.

For `CCCCCC(O)C(C)C(C)C` (configuration not stated), the T/C [4] was 100 % of control, the T/C [5] was 95 % of control and the T/C [6] was 103 % of control.

`O=c1[nH]cnc2nn(C3OC(CO)C(O)C3O)nc12` (configuration not stated) was tested, and the T/C (endpoint: median survival time, dose: 12.5 mg/kg/injection, schedule: Q01DX005 (ip), vehicle: saline) was 94 % of control, the T/C (endpoint: median survival time, dose: 25.0 mg/kg/injection, schedule: Q01DX005 (ip), vehicle: saline) was 94 % of control and the T/C (endpoint: median survival time, dose: 50.0 mg/kg/injection, schedule: Q01DX005 (ip), vehicle: saline) was 91 % of control. For the same compound, the T/C (endpoint: median survival time, dose: 100.0 mg/kg/injection, schedule: Q01DX005 (ip), vehicle: saline) was 97 % of control and 103 % of control, the T/C (endpoint: median survival time, dose: 200.0 mg/kg/injection, schedule: Q01DX005 (ip), vehicle: saline) was 101 % of control and 107 % of control and the T/C (endpoint: median survival time, dose: 400.0 mg/kg/injection, schedule: Q01DX005 (ip), vehicle: saline) was 103 % of control.

`Nc1nc(N)c2nc(CNc3ccc(C(=O)NC(CC(=O)O)C(=O)O)cc3)cnc2n1` (configuration not stated) was tested, and the T/C (endpoint: mean survival time, dose: 6.25 mg/kg/injection, schedule: Q01DX001 (ip), vehicle: saline) was 101 % of control, the T/C (endpoint: mean survival time, dose: 12.5 mg/kg/injection, schedule: Q01DX001 (ip), vehicle: saline) was 98 % of control and the T/C (endpoint: mean survival time, dose: 25.0 mg/kg/injection, schedule: Q01DX001 (ip), vehicle: saline) was 107 % of control. The T/C (endpoint: mean survival time, dose: 50.0 mg/kg/injection, schedule: Q01DX001 (ip), vehicle: saline) was 104 % of control, the T/C (endpoint: mean survival time, dose: 100.0 mg/kg/injection, schedule: Q01DX001 (ip), vehicle: saline) was 104 % of control and the T/C (endpoint: mean survival time, dose: 200.0 mg/kg/injection, schedule: Q01DX001 (ip), vehicle: saline) was 117 % of control.

For `NC(=S)CNC(=O)c1ccccc1`, the T/C [1] was 100 % of control and 101 % of control, the T/C [2] was 101 % of control and 106 % of control and the T/C [3] was 99 % of control and 111 % of control.

With `OC(Cc1ccnc2ccccc12)C(Cl)(Cl)Cl` (configuration not stated) the T/C (endpoint: mean survival time, dose: 100.0 mg/kg/injection, schedule: Q04DX003 (ip), vehicle: saline) was 103 % of control, the T/C (endpoint: mean survival time, dose: 200.0 mg/kg/injection, schedule: Q04DX003 (ip), vehicle: saline) was 103 % of control and the T/C (endpoint: mean survival time, dose: 400.0 mg/kg/injection, schedule: Q04DX003 (ip), vehicle: saline) was 97 % of control.

In the case of `CC(C)(C)NC(=O)CCC(CC(=O)NC(C)(C)C)OCc1ccccc1` (configuration not stated), the T/C [4] is reported as 100 % of control, the T/C [5] is reported as 104 % of control and the T/C [1] is reported as 101 % of control. For the same compound, the T/C [6] was 102 % of control, the T/C [2] was 106 % of control and the T/C [7] was 93 % of control. The T/C [3] was 93 % of control.

`CNOCc1ccc(C(=O)NC(C)C)cc1` was tested, and the T/C (endpoint: mean survival time, dose: 25.0 mg/kg/injection, schedule: Q01DX009 (ip), vehicle: other) was 98 % of control, the T/C (endpoint: mean survival time, dose: 50.0 mg/kg/injection, schedule: Q01DX009 (ip), vehicle: other) was 100 % of control and the T/C (endpoint: mean survival time, dose: 100.0 mg/kg/injection, schedule: Q01DX009 (ip), vehicle: other) was 98 % of control. For the same compound, the T/C (endpoint: mean survival time, dose: 200.0 mg/kg/injection, schedule: Q01DX009 (ip), vehicle: other) was 100 % of control and the T/C (endpoint: mean survival time, dose: 400.0 mg/kg/injection, schedule: Q01DX009 (ip), vehicle: other) was 118 % of control.

With `CCCCCCCCCCCCOP(OCCCCCCCCCCCC)OCCCCCCCCCCCC` the T/C (endpoint: mean survival time, dose: 100.0 mg/kg/injection, schedule: Q04DX003 (ip), vehicle: alcohol) was 102 % of control, the T/C (endpoint: mean survival time, dose: 200.0 mg/kg/injection, schedule: Q04DX003 (ip), vehicle: alcohol) was 96 % of control and the T/C (endpoint: mean survival time, dose: 400.0 mg/kg/injection, schedule: Q04DX003 (ip), vehicle: alcohol) was 98 % of control.

For `Cc1cccc(C)c1Nc1n[nH]c(=S)s1`, the T/C (endpoint: mean survival time, dose: 100.0 mg/kg/injection, schedule: Q01DX001 (ip), vehicle: Klucel (hydroxypropylcellulose) (HPC)) was 97 % of control, the T/C (endpoint: mean survival time, dose: 200.0 mg/kg/injection, schedule: Q01DX001 (ip), vehicle: Klucel (hydroxypropylcellulose) (HPC)) was 101 % of control and the T/C (endpoint: mean survival time, dose: 400.0 mg/kg/injection, schedule: Q01DX001 (ip), vehicle: Klucel (hydroxypropylcellulose) (HPC)) was 101 % of control.

In the case of `O=C(O)C1CC(n2cnc3c(=O)[nH]cnc32)CN1` (configuration not stated), the T/C (endpoint: mean survival time, dose: 50.0 mg/kg/injection, schedule: Q04DX002 (ip), vehicle: saline with Tween-80) is reported as 96 % of control, the T/C (endpoint: mean survival time, dose: 100.0 mg/kg/injection, schedule: Q04DX002 (ip), vehicle: saline with Tween-80) is reported as 110 % of control and the T/C (endpoint: mean survival time, dose: 200.0 mg/kg/injection, schedule: Q04DX002 (ip), vehicle: saline with Tween-80) is reported as 93 % of control. The T/C (endpoint: mean survival time, dose: 400.0 mg/kg/injection, schedule: Q04DX002 (ip), vehicle: saline with Tween-80) was 93 % of control.

For `Nn1[nH]c(=O)c2nc[nH]c2c1=O`, the T/C (endpoint: median survival time, dose: 15.0 mg/kg/injection, schedule: Q01DX005 (ip), vehicle: saline with Tween-80) was 103 % of control, the T/C (endpoint: median survival time, dose: 30.0 mg/kg/injection, schedule: Q01DX005 (ip), vehicle: saline with Tween-80) was 111 % of control and the T/C (endpoint: median survival time, dose: 60.0 mg/kg/injection, schedule: Q01DX005 (ip), vehicle: saline with Tween-80) was 102 % of control.

With `COc1ccc(CCNC(=O)/C=C\C(=O)O)cc1OC` the T/C [5] was 106 % of control, the T/C [1] was 89 % of control and the T/C [6] was 103 % of control. The T/C [2] was 103 % of control, the T/C [7] was 101 % of control and the T/C [3] was 106 % of control.

With `CCOC(=O)N1N(C(=O)c2ccccc2)C(=O)CC1(C)C` the T/C (endpoint: mean survival time, dose: 100.0 mg/kg/injection, schedule: Q01DX001 (ip), vehicle: other) was 95 % of control, the T/C (endpoint: mean survival time, dose: 200.0 mg/kg/injection, schedule: Q01DX001 (ip), vehicle: other) was 116 % of control and the T/C (endpoint: mean survival time, dose: 400.0 mg/kg/injection, schedule: Q01DX001 (ip), vehicle: other) was 98 % of control.

`CCC1(O)C(=O)OCc2c1cc1n(c2=O)Cc2cc3ccc(O)cc3nc2-1` (configuration not stated) was tested, and the T/C (endpoint: median survival time, dose: 3.75 mg/kg/injection, schedule: Q04DX002 (ip), vehicle: Klucel (hydroxypropylcellulose) (HPC)) was 121 % of control, the T/C (endpoint: median survival time, dose: 7.5 mg/kg/injection, schedule: Q04DX002 (ip), vehicle: Klucel (hydroxypropylcellulose) (HPC)) was 272 % of control and the T/C (endpoint: median survival time, dose: 15.0 mg/kg/injection, schedule: Q04DX002 (ip), vehicle: Klucel (hydroxypropylcellulose) (HPC)) was 190 % of control. The T/C (endpoint: median survival time, dose: 30.0 mg/kg/injection, schedule: Q04DX002 (ip), vehicle: Klucel (hydroxypropylcellulose) (HPC)) was 152 % of control and the T/C (endpoint: median survival time, dose: 60.0 mg/kg/injection, schedule: Q04DX002 (ip), vehicle: Klucel (hydroxypropylcellulose) (HPC)) was 154 % of control and 357 % of control.

`[Cl][Pt+2][Cl].[NH-]C(C(=O)O)c1ccccc1.[NH-]C(C(=O)O)c1ccccc1` (configuration not stated) was tested, and the T/C (endpoint: median survival time, dose: 3.12 mg/kg/injection, schedule: Q04DX003 (ip), vehicle: saline) was 103 % of control, the T/C (endpoint: median survival time, dose: 6.25 mg/kg/injection, schedule: Q04DX003 (ip), vehicle: saline) was 103 % of control and the T/C (endpoint: median survival time, dose: 12.5 mg/kg/injection, schedule: Q04DX003 (ip), vehicle: saline) was 100 % of control. The T/C (endpoint: median survival time, dose: 25.0 mg/kg/injection, schedule: Q04DX003 (ip), vehicle: saline) was 107 % of control, the T/C (endpoint: median survival time, dose: 50.0 mg/kg/injection, schedule: Q04DX003 (ip), vehicle: saline) was 101 % of control and the T/C (endpoint: median survival time, dose: 100.0 mg/kg/injection, schedule: Q04DX003 (ip), vehicle: saline) was 123 % of control.
